ChEMBL document CHEMBL5137022, “Antitumor Activity of Rutaecarpine in Human Colorectal Cancer Cells by Suppression of Wnt/β-Catenin Signaling” (J Nat Prod, 2022)
Calls of active or inactive are those of the source. No cut-off for these calls is given here.

Tests used:
[1] = test system: LS174T; assay: Induction of cell cycle arrest in human LS174T cells assessed as accumulation of cells at G2/M phase at 20 uM measured at 48 hrs by RNase A/propidium iodide staining based flow cytometric analysis (reference value: 12.9 %); type: functional
[2] = test system: LS174T; assay: Induction of cell cycle arrest in human LS174T cells assessed as accumulation of cells […] at 20 uM measured after 24 hrs by RNase A/propidium iodide staining based flow cytometric analysis (reference value: 1.3 %); type: functional
[3] = test system: LS174T; assay: Induction of apoptosis in human LS174T cells assessed as upregulation of cleaved caspase-3 expression measured after 48 hrs by Western blot analysis; type: functional, cell-based; settings: dose 20-40 µM, DDE = dose-dependent effect
[4] = Toxicity in BALB/c nude mouse xenografted with human LS174T cells assessed as effect on body weight at 30 mg/kg, IP administered 3 times per week for 21 days; type: organism-based; settings: in vivo, 504 h, time 21 day
[5] = test system: LS174T; assay: Induction of cell cycle arrest in human LS174T cells assessed as accumulation of cells at sub-G1 phase at 10 uM measured after 24 hrs by RNase A/propidium iodide staining based flow cytometric analysis (reference value: 1.3 %); type: functional
[6] = test system: LS174T; assay: Antitumor activity against human LS174T cells xenografted in BALB/c nude mouse assessed as reduction in tumor volume at 10 mg/kg, ip administered 3 times per week for 21 days by electronic caliper method; type: functional; parameters: scale not given: the % may be the effect or the level left; settings: time 21 day
[7] = test system: Mus musculus; assay: Downregulation of N-cadherin expression in tumor of BALB/c mouse xenografted with human LS174T cells at 10 to 30 mg/kg, ip administered 3 times per week for 21 days by immunohistochemical based analysis; type: functional, organism-based; settings: dose 10-30 mg/kg, time 21.0 day
[8] = test system: LS174T; assay: Induction of apoptosis in human LS174T cells assessed as upregulation of cleaved PARP expression measured after 48 hrs by Western blot analysis; type: functional, cell-based; settings: dose 20-40 µM, DDE = dose-dependent effect
[9] = test system: LS174T; assay: Induction of cell cycle arrest in human LS174T cells assessed as downregulation of cyclin E expression measured after 24 hrs by Western blot analysis; type: functional, cell-based; settings: dose 5-20 µM, DDE = dose-dependent effect
[10] = test system: Mus musculus; assay: Downregulation of cyclin-D1 expression in tumor of BALB/c mouse xenografted with human LS174T cells at 10 to 30 mg/kg, ip administered 3 times per week for 21 days by Western blot analysis; type: functional, organism-based; settings: dose 10-30 mg/kg, time 21.0 day
[11] = test system: LS174T; assay: Induction of cell cycle arrest in human LS174T cells assessed as downregulation of CDK6 expression measured after 24 hrs by Western blot analysis; type: functional, cell-based; settings: dose 5-20 µM, DDE = dose-dependent effect
[12] = test system: CCD-841CoN; assay: Antiproliferative activity against human CCD-841CoN cells assessed as reduction in cell viability measured after 72 hrs by SRB assay; type: functional, cell-based
[13] = test system: Mus musculus; assay: Downregulation of c-myc protein expression in tumor of BALB/c mouse xenografted with human LS174T cells at 10 to 30 mg/kg, ip administered 3 times per week for 21 days by Western blot analysis; type: functional, organism-based; settings: dose 10-30 mg/kg, time 21.0 day
[14] = test system: Mus musculus; assay: Downregulation of c-Myc expression in tumor of BALB/c mouse xenografted with human LS174T cells at 10 to 30 mg/kg, ip administered 3 times per week for 21 days by immunohistochemical based analysis; type: functional, organism-based; settings: dose 10-30 mg/kg, time 21.0 day
[15] = test system: LS174T; assay: Induction of cell cycle arrest in human LS174T cells assessed as accumulation of cells at S phase at 20 uM measured at 48 hrs by RNase A/propidium iodide staining based flow cytometric analysis (reference value: 11.4 %); type: functional
[16] = test system: LS174T; assay: Downregulation of c-Myc expression in human LS174T cells at 2.5 to 20 uM incubated for 24 hrs by Western blot analysis; type: functional, cell-based; settings: dose 2.5-20 µM
[17] = test system: Mus musculus; assay: Downregulation of N-cadherin expression in tumor of BALB/c mouse xenografted with human LS174T cells at 10 to 30 mg/kg, ip administered 3 times per week for 21 days by Western blot analysis; type: functional, organism-based; settings: dose 10-30 mg/kg, time 21.0 day
[18] = test system: LS174T; assay: Antiproliferative activity against human LS174T cells harboring beta-catenin mutant assessed as reduction in cell viability measured after 72 hrs by SRB assay; type: functional, cell-based
[19] = Toxicity in BALB/c nude mouse xenografted with human LS174T cells assessed as effect on body weight at 10 to 30 mg/kg, ip administered 3 times per week for 21 days; type: organism-based; settings: in vivo, 504 h, dose 10-30 mg/kg, time 21 day
[20] = test system: LS174T; assay: Induction of apoptosis in human LS174T cells assessed as total cell death at 20 uM measured after 48 hrs by AnnexinV-FITC/PI staining based flowcytometry analysis relative to control; type: functional
[21] = test system: LS174T; assay: Downregulation of N-cadherin expression in human LS174T cells at up to 8 uM incubated for 24 hrs by Western blot analysis; type: functional, cell-based
[22] = test system: RKO; assay: Antiproliferative activity against human RKO cells harboring wild type beta-catenin assessed as reduction in cell viability measured after 72 hrs by SRB assay; type: functional, cell-based
[23] = test system: LS174T; assay: Induction of cell cycle arrest in human LS174T cells assessed as accumulation of cells at G2/M phase at 20 uM measured at 36 hrs by RNase A/propidium iodide staining based flow cytometric analysis (reference value: 12.9 %); type: functional
[24] = test system: LS174T; assay: Induction of cell cycle arrest in human LS174T cells assessed as accumulation of cells at sub-G1 phase at 5 uM measured after 24 hrs by RNase A/propidium iodide staining based flow cytometric analysis (reference value: 1.3 %); type: functional
[25] = test system: LS174T; assay: Induction of cell cycle arrest in human LS174T cells assessed as accumulation of cells at G0/G1 phase at 20 uM measured at 12 hrs by RNase A/propidium iodide staining based flow cytometric analysis (reference value: 74.8 %); type: functional
[26] = test system: LS174T; assay: Induction of cell cycle arrest in human LS174T cells assessed as accumulation of cells at sub-G1 phase at 20 uM measured at 12 hrs by RNase A/propidium iodide staining based flow cytometric analysis (reference value: 0.7 %); type: functional
[27] = test system: LS174T; assay: Induction of cell cycle arrest in human LS174T cells assessed as accumulation of cells at G2/M phase at 5 uM measured after 24 hrs by RNase A/propidium iodide staining based flow cytometric analysis (reference value: 12.2 %); type: functional
[28] = test system: LS174T; assay: Induction of cell cycle arrest in human LS174T cells assessed as accumulation of cells at S phase at 20 uM measured at 36 hrs by RNase A/propidium iodide staining based flow cytometric analysis (reference value: 11.4 %); type: functional
[29] = test system: LS174T; assay: Induction of cell cycle arrest in human LS174T cells assessed as accumulation of cells at G0/G1 phase at 5 uM measured after 24 hrs by RNase A/propidium iodide staining based flow cytometric analysis (reference value: 71.7 %); type: functional
[30] = test system: LS174T; assay: Induction of apoptosis in human LS174T cells assessed as downregulation of survivin expression measured after 48 hrs by Western blot analysis; type: functional, cell-based; settings: dose 20-40 µM, DDE = dose-dependent effect
[31] = test system: LS174T; assay: Induction of cell cycle arrest in human LS174T cells assessed as accumulation of cells at G0/G1 phase at 20 uM measured at 24 hrs by RNase A/propidium iodide staining based flow cytometric analysis (reference value: 74.8 %); type: functional
[32] = test system: LS174T; assay: Induction of cell cycle arrest in human LS174T cells assessed as accumulation of cells at sub-G1 phase at 20 uM measured at 36 hrs by RNase A/propidium iodide staining based flow cytometric analysis (reference value: 0.7 %); type: functional

**Q.** Which results are given for `O=c1c2ccccc2nc2n1CCc1c-2[nH]c2ccccc12` [RUTAECARPINE]?
**A.** Activity [1]: 4.4%; Activity [2]: 1.5%; Activity [3]: Dde; Activity [4]: Non-Toxic; Activity [5]: 1.3%; Activity [6]: 25.9%; Activity [7]: Active; Activity [8]: Dde; Activity [9]: Dde; Activity [10]: Active; Activity [11]: Dde; IC50 [12]: > 50 µM; Activity [13]: Active; Activity [14]: Active; Activity [15]: 4.7%; Activity [16]: Active; Activity [17]: Active; IC50 [18]: 6.1 µM; Activity [19]: Non-Toxic; Activity [20]: 24.7%; Activity [21]: Active; IC50 [22]: > 50 µM; Activity [23]: 4.5%; Activity [24]: 1.4%; Activity [25]: 80.3%; Activity [26]: 0.5%; Activity [27]: 11.8%; Activity [28]: 2.1%; Activity [29]: 75.8%; Activity [30]: Dde; Activity [31]: 89.5%; Activity [32]: 6.1%
